From ChEMBL document CHEMBL1136694, “Aryl tetrahydropyridine inhibitors of farnesyltransferase: bioavailable analogues with improved cellular potency” (Bioorg Med Chem Lett, 2003)

How the values were obtained:
[1] = molecular target: Protein farnesyltransferase (Mus musculus, UniProt Q61239+Q8K2I1); test: Inhibition of Ras farnesylation in Human Ha-Ras oncogene-transformed BALB/c 3T3 cells (EJ3 cells); type: functional, cell-based
[2] = molecular target: Protein farnesyltransferase (Homo sapiens, UniProt P49354+P49356); test: In vitro inhibition of farnesyltransferase; type: protein-complex assay
[3] = molecular target: Geranylgeranyl transferase type I (Homo sapiens, UniProt P49354+P53609); test: In vitro inhibition of geranylgeranyltransferase-1; type: protein-complex assay
[4] = Compound was tested for orally bioavailable in dogs with a half life of 1.2h; type: ADME, organism-based, Canis lupus familiaris; settings: dog, in vivo, po
[5] = Compound was tested for orally bioavailable in dogs with a half life of 0.7 hr; type: ADME, organism-based, Canis lupus familiaris; settings: dog, in vivo, po

Compound | EC50 [1] [nM] | IC50 [2] [nM] | IC50 [3] [nM] | bioavailability [4] [%] | bioavailability [5] [%]
COC1=C(C#N)CCN(C(=O)Cc2cncn2Cc2ccc(C#N)c(-c3cccc4ccccc34)c2)C1 | > 100 | 1.4 | 2700 | – | –
Cn1cncc1CN(Cc1cccc(C#N)c1)C(=O)N1CCC(C#N)=C(c2cccc3ccccc23)C1 | – | 59 | 10000 | – | –
N#CC1=C(c2cccc3ccccc23)CN(C(=O)Cc2cncn2Cc2ccc(Cl)cc2)CC1 | > 100 | 35 | > 10000 | – | –
CN(Cc1ccc(C#N)cc1)[C@H](Cc1cncn1C)C(=O)N1CCC(C#N)=C(c2cccc3ccccc23)C1 | > 100 | 0.92 | 1600 | – | –
N#CC1=C(c2cccc3ccccc23)CN(C(=O)Cc2cncn2Cc2ccc(C#N)cc2)CC1 | 3.9 | – | 4500 | – | 10
Cn1cncc1C(c1ccc(C#N)cc1)N1CCC(C#N)=C(c2cccc3ccccc23)C1 (stereo not drawn) | 31 | 0.5 | 161000 | – | –
Cn1cncc1CN(Cc1ccc(C#N)cc1)C(=O)N1CCC(C#N)=C(c2cccc3ccccc23)C1 | 97 | 3.5 | 4000 | – | –

These reach a lower IC50 [3]. Values come first.

EC50 [1] [nM] | IC50 [2] [nM] | IC50 [3] [nM] | bioavailability [4] [%] | bioavailability [5] [%] | Compound
– | 20 | 1500 | – | – | Cn1cncc1CN(Cc1ccc(Cl)c(Cl)c1)C(=O)N1CCC(C#N)=C(c2cccc3ccccc23)C1
> 1 | 3.1 | 1400 | – | – | Cn1cncc1CN(Cc1ccc(C#N)c(Br)c1)C(=O)N1CCC(C#N)=C(c2cccc3ccccc23)C1
> 100 | 15 | 1300 | – | – | N#CC1=C(c2cccc3ccccc23)CN(C(=O)Cc2cncn2Cc2ccc(C#N)c(Cl)c2)CC1
28 | 1.4 | 1300 | – | – | N#CC1=C(c2cccc3ccccc23)CN(C(=O)CCc2cncn2Cc2ccc(C#N)cc2)CC1
0.5 | 0.5 | 600 | 27 | – | Cn1cncc1C(NN1CCC(C#N)=C(c2cccc3ccccc23)C1)c1ccc(C#N)cc1 (stereo not drawn)
4 | 0.48 | 540 | – | – | Cn1cncc1C(O)(CN1CCC(C#N)=C(c2cccc3ccccc23)C1)c1ccc(C#N)cc1 (stereo not drawn)
